pKd: −log10 of the molar value.

We go through 68 compounds from US20260199485A1, “RNA DEGRADERS AND USES THEREOF” (Arrakis Therapeutics, Inc., priority 2022, published 2026).

In one experiment the target is T1, CNOT7 (Homo sapiens, UniProt Q9UIV1).
T1 construct: biotin (biotinylated); purchased Ichor Life Sciences
T1 sequence (Q9UIV1 whole entry): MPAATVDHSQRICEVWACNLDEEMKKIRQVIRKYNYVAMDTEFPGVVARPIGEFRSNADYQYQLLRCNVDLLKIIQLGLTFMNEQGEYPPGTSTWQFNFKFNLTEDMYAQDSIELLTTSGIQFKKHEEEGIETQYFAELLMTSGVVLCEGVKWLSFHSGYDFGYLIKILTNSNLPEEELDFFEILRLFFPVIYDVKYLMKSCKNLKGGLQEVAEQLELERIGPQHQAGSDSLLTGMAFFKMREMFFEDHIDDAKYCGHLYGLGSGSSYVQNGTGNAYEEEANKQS
Put plainly: Binding of compounds to CNOT7 by surface plasmon resonance (SPR). To be noted: Table 4; dissociation constant for CNOT7. How it is done:
Surface plasmon resonance (SPR) was used to evaluate the binding of compounds to CNOT7. Experiments were performed on a Biacore 8K (Cytiva) with a running buffer consisting of 20 mM HEPES pH7.5, 100 mM KCl, 3 mM MgCl2, 1 mM TCEP, 0.05% tween-20, 2% DMSO. Briefly, biotinylated CNOT7 (Ichor Life Sciences) at a concentration of 70 μg/ml was immobilized to a streptavidin coated chip (Cytiva sensor chip SA) for 1200 sec at a flow rate of 5 μl/min (typical immobilization level 7,500 RU). For compound binding experiments, various concentrations of analyte were flowed over the chip with 120 sec association phase, 120 sec dissociation phase, at a flow rate of 30 ul/min and collection rate of 10 Hz. Reference channel subtraction and solvent correction were applied to all sensograms prior to data analysis. Sensograms were fit to 1:1 steady state affinity model. FIGS. 3 and 4 show the binding of exemplary compounds and the AMP control (a known CNOT7 active site binder) at various concentrations to CNOT7.
As for `O=C(CSc1cc[nH]c(=O)n1)NCc1ccc2c(c1)OCO2` [Compound I-2], the pKd was < 4.60.
For the compound `COc1cccc(CNC(=O)CSc2nc(=O)[nH]cc2C)c1` [Compound I-5], the pKd was < 4.60.
As for `Cc1c[nH]c(=O)nc1SCC(=O)N(C)Cc1ccc2c(c1)OCO2` [Compound I-6], the pKd was < 4.60.

Still in this experiment, the particulars now being: Table 5; dissociation constant for CNOT7 by SPR.
For `COc1ccc(C(C)NC(=O)C2CC2c2nc(=O)[nH]cc2C)cc1` (mixture of isomers) [Compound I-239], the negative-log Kd (pKd) was < 4.60.
Take `COc1ccc(C(C)NC(=O)C2CC2c2nc(=O)[nH]cc2C)cc1` (mixture of isomers) [Compound I-240]: the pKd is < 4.60.
The same measure, in the same setting: then `COc1ccc([C@H](C)NC(=O)CSc2nc(=O)[nH]cc2C)cc1` [Compound I-26], with < 4.60; and `COc1ccc([C@@H](C)NC(=O)CSc2nc(=O)[nH]cc2C)cc1` [Compound I-27], with 4.60 to 6.00; and `COc1ccc(C(C)NC(=O)CSc2nc(=O)[nH]cc2C)cc1` (centres unmarked) [Compound I-28], with 4.60 to 6.00.
`COc1ccc(CNC(=O)COc2nc(=O)[nH]cc2C)cc1` [Compound I-31]: the pKd was < 4.60.
For `COc1ccc(CNC(=O)CNc2nc(=O)[nH]cc2C)cc1` [Compound I-32], the pKd is < 4.60.
Regarding `COc1ccc(CNC(=O)CCc2nc(=O)[nH]cc2C)cc1` [Compound I-34], the pKd is 4.60 to 6.00.
On to `COc1ccc(CNC(=O)CSc2nc(=O)[nH]cc2C)nc1` [Compound I-42], for which the pKd was 4.60 to 6.00.
Same read-out and setting: with `COc1ccc(CNC(=O)CSc2nc(=O)[nH]cc2C)cn1` [Compound I-43] the figure was < 4.60; with `COc1cnc(CNC(=O)CSc2nc(=O)[nH]cc2C)nc1` [Compound I-44], 4.60 to 6.00.
`COc1ccc(C(CO)NC(=O)CSc2nc(=O)[nH]cc2C)cc1` (centres unmarked) [Compound I-46]: the negative-log Kd (pKd) was 4.60 to 6.00.
The compound `COc1ccc([C@@H](CO)NC(=O)CSc2nc(=O)[nH]cc2C)cc1` [Compound I-48] had a pKd of 4.60 to 6.00.
In turn, `Cc1c[nH]c(=O)nc1SCC(=O)NCc1ccc2c(c1)OCCO2` [Compound I-50] showed a pKd of 4.60 to 6.00.
On to `Cc1c[nH]c(=O)nc1SCC(=O)NCc1ccc2oc(=O)[nH]c2c1` [Compound I-51], for which the pKd is < 4.60.
Turning to `Cc1c[nH]c(=O)cc1SCC(=O)NCc1ccc2c(c1)NC(=O)CO2` [Compound I-52], the pKd is < 4.60.
Same read-out and setting: then `Cc1c[nH]c(=O)nc1SCC(=O)NCc1ccc2c(c1)NCCO2` [Compound I-54], with < 4.60; and `Cc1c[nH]c(=O)nc1SCC(=O)NCc1ccc2c(c1)N(C)CCO2` [Compound I-55], with < 4.60.
The same measure, in the same setting: then `Cc1c[nH]c(=O)nc1SCC(=O)NCc1ccc2c(c1)CC(=O)N2` [Compound I-56], with 4.60 to 6.00.
Same read-out and setting: with `Cc1c[nH]c(=O)nc1SCC(=O)NCc1ccc2c(c1)NC(=O)C2` [Compound I-57] the figure was 4.60 to 6.00; with `COCCOCCC(Sc1nc(=O)[nH]cc1C)C(=O)NCc1ccc(OC)cc1` (centres unmarked) [Compound I-165, 4-(2-methoxyethoxy)-N-[(4-methoxyphenyl)methyl]-2-[(5-methyl-2-oxo-1H-pyrimidin-4-yl)sulfanyl]butanamide], 4.60 to 6.00.
On to `COCCOCC[C@@H](Sc1nc(=O)[nH]cc1C)C(=O)NCc1ccc(OC)cc1` [Compound I-166, (2R)-4-(2-methoxyethoxy)-N-[(4-methoxyphenyl)methyl]-2-[(5-methyl-2-oxo-1H-pyrimidin-4-yl)sulfanyl]butanamide], for which the pKd is 4.60 to 6.00.
The compound `COCCOCC[C@H](Sc1nc(=O)[nH]cc1C)C(=O)NCc1ccc(OC)cc1` [Compound I-167, (2S)-4-(2-methoxyethoxy)-N-[(4-methoxyphenyl)methyl]-2-[(5-methyl-2-oxo-1H-pyrimidin-4-yl)sulfanyl]butanamide] showed a pKd of 4.60 to 6.00.
In turn, `COc1ccc(CNC(=O)C(C)Sc2nc(=O)[nH]cc2C)cc1` (centres unmarked) [Compound I-168] showed a pKd of 4.60 to 6.00.
Compound `COCC(Sc1nc(=O)[nH]cc1C)C(=O)NCc1ccc(OC)cc1` (centres unmarked) [Compound I-169] gave a pKd of 4.60 to 6.00.
Same read-out and setting: then `CCC(Sc1nc(=O)[nH]cc1C)C(=O)NCc1ccc(OC)cc1` (centres unmarked) [Compound I-170], with 4.60 to 6.00; and `COCC(Sc1nc(=O)[nH]cc1C)C(=O)NCc1ccc2c(c1)CC(=O)N2` (centres unmarked) [Compound I-191], with 6.00 to 7.00; and `COCC(Sc1nc(=O)[nH]cc1C)C(=O)NC(C)c1ccc2c(c1)CC(=O)N2` (centres unmarked) [Compound I-192], with 4.60 to 6.00.
The compound `COC[C@H](Sc1nc(=O)[nH]cc1C)C(=O)N[C@H](C)c1ccc2c(c1)CC(=O)N2` [Compound I-193] gave a pKd of 4.60 to 6.00.
For `COc1ccc(C2(NC(=O)CSc3nc(=O)[nH]cc3C)CC2)cc1` [Compound I-197], the pKd was 4.60 to 6.00.
On to `COc1ccc2c(c1)CN(C(=O)CSc1nc(=O)[nH]cc1C)C2` [Compound I-205], for which the pKd was < 4.60.
Compound `CC[C@@H](NC(=O)CSc1nc(=O)[nH]cc1C)c1ccc(OC)cc1` [Compound I-217] gave a pKd of 4.60 to 6.00.
`COc1ccc([C@H](NC(=O)CSc2nc(=O)[nH]cc2C)C(C)C)cc1` [Compound I-218] gave a pKd of 4.60 to 6.00.
Compound `Cc1c[nH]c(=O)nc1SCC(=O)N[C@@H](c1ccc(O)cc1)C1CC1` [Compound I-219] had a pKd of 4.60 to 6.00.
For `COc1ccc([C@H](NC(=O)CSc2nc(=O)[nH]cc2C)C(F)(F)F)cc1` [Compound I-221], the pKd was 4.60 to 6.00.
With `COc1ccc(C(C)NC(=O)CSc2nc(=O)[nH]cc2C2CC2)cc1` (centres unmarked) [Compound I-225], the pKd is < 4.60.
The compound `CCc1c[nH]c(=O)nc1SCC(=O)N[C@H](C)c1ccc(OC)cc1` [Compound I-226] showed a pKd of 4.60 to 6.00.
`COc1ccc([C@@H](C)NC(=O)CSc2nc(=O)[nH]cc2F)cc1` [Compound I-228] gave a pKd of 4.60 to 6.00.
With `COc1ccc(C(C)NC(=O)CSc2nc(=O)[nH]cc2OC)cc1` (centres unmarked) [Compound I-230], the pKd was < 4.60.
As to `COc1ccc(C(C)NC(=O)C2CC2c2nc(=O)[nH]cc2C)cc1` (centres unmarked) [Compound I-238], the pKd is < 4.60.
Take `COc1ccc([C@@H](C)NC(=O)CSc2[nH]c(=O)[nH]c(=O)c2C)cc1` [Compound I-242]: the pKd is < 4.60.
On the same count and under the same terms, then `COc1ccc([C@@H](C)NC(=O)CSc2nc(=O)[nH]cc2C)cc1` [Compound I-247], with 4.60 to 6.00; and `COc1ccc(C(C)(C)NC(=O)CSc2nc(=O)[nH]cc2C)cc1` [Compound I-249], with 4.60 to 6.00.
Take `COc1ccc(CN2CCC(Sc3nc(=O)[nH]cc3C)C2=O)cc1` (centres unmarked) [Compound I-252]: the pKd is < 4.60.
With `COc1ccc(CN2CC[C@H](Sc3nc(=O)[nH]cc3C)C2=O)cc1` [Compound I-254], the pKd is < 4.60.
Still for that read-out and setting: then `COCC(Sc1nc(=O)[nH]cc1C)C(=O)NC(C)c1ccc(OC)cc1` (centres unmarked) [Compound I-266], with 4.60 to 6.00.
In turn, `COCC(Sc1nc(=O)[nH]cc1C)C(=O)NC(C)c1ccc(OC)cc1` (centres unmarked) [Compound I-267] gave a negative logarithm of the Kd (pKd) of 4.60 to 6.00.
In the case of `CCOc1ccc([C@@H](C)NC(=O)CSc2nc(=O)[nH]cc2C)cc1` [Compound I-277], the pKd was 4.60 to 6.00.
As for `COc1ccc(CN(CCO)C(=O)CSc2cc(=O)[nH]cc2C)cc1` [Compound I-287], the pKd is < 4.60.
Regarding `Cc1c[nH]c(=O)nc1SCC(=O)NC(C)c1ccc(S(C)(=O)=O)cc1` (centres unmarked) [Compound I-294], the pKd was 4.60 to 6.00.
The compound `COc1ccc([C@@H](C)NC(=O)CSc2nc(=O)[nH]cc2Cl)cc1F` [Compound I-306] gave a pKd of 4.60 to 6.00.
The same measure, in the same setting: then `COc1ccc(C2(NC(=O)CSc3nc(=O)[nH]cc3Cl)CC2)cc1F` [Compound I-307], with 6.00 to 7.00.

The same experiment, now with this note: Table 6; dissociation constant for CNOT7 by SPR.
`COc1cnc(CNC(=O)CSc2nc(=O)[nH]cc2C)cn1` [Compound I-45] gave a pKd of 4.60 to 6.00.
Take `Cc1c[nH]c(=O)nc1SCC(=O)NCc1ccc2c(c1)COC2` [Compound I-58]: the pKd was < 4.60.
As for `COCCOC[C@@H](Sc1nc(=O)[nH]cc1C)C(=O)N[C@H](C)c1ccc(OC)cc1` [Compound I-172], the pKd is 4.60 to 6.00.
As for `COCCOC[C@H](Sc1nc(=O)[nH]cc1C)C(=O)N[C@H](C)c1ccc(OC)cc1` [Compound I-173], the negative-log Kd (pKd) was 4.60 to 6.00.
On the same count and under the same terms, with `Cc1c[nH]c(=O)nc1SCC(=O)N[C@H](C)c1ccc2c(c1)CC(=O)N2` [Compound I-190] the figure was 4.60 to 6.00; with `COc1ccc2c(c1)CCN(C(=O)CSc1nc(=O)[nH]cc1C)[C@@H]2C` [Compound I-199], 6.00 to 7.00.
`C#CCOCCOCCOCCOC[C@@H]1Cc2cc(OC)ccc2CN1C(=O)CSc1nc(=O)[nH]cc1C` [Compound I-203] had a pKd of 4.60 to 6.00.
On to `COc1ccc([C@@H](C)NC(=O)CSc2nc(=O)[nH]cc2Cl)cc1` [Compound I-229], for which the negative-log Kd (pKd) is 4.60 to 6.00.
The compound `COc1ccc(C(C)NC(=O)CSc2nc(=O)[nH]cc2C)cc1F` (centres unmarked) [Compound I-244] had a pKd of 4.60 to 6.00.
The same measure, in the same setting: with `COc1ccc([C@@H](C)NC(=O)CSc2nc(=O)[nH]cc2C)c(C)c1` [Compound I-248] the figure was 6.00 to 7.00.
With `COc1ccc([C@](C)(CO)NC(=O)CSc2nc(=O)[nH]cc2C)cc1` [Compound I-250], the pKd was 4.60 to 6.00.
The compound `COc1ccc([C@@H](C)NC(=O)[C@@H](CCOCCOCCOCCN=[N+]=[N-])Sc2cc[nH]c(=O)n2)cc1` [Compound I-261] showed a pKd of 4.60 to 6.00.
As to `COc1ccc([C@@H](C)NC(=O)CSc2cc(=O)[nH]cc2C)nc1` [Compound I-281], the pKd was 4.60 to 6.00.
